Measurements published in patent publication US10722520B2, “Heterocyclic compounds and their use in preventing or treating bacterial infections” (MUTABILIS, priority 2016, dated 2020).

Key:
E. coli RGN238 [1] = assay: microbe, parasite or virus in culture; format: cell-based; details: Escherichia coli, RGN238, read-out: MIC compounds of the invention alone
Description: Log phase bacterial suspensions were adjusted to a final density of 5×10^5 cfu/mL in cation-adjusted Mueller-Hinton broth (Becton-Dickinson) and added to each well (98 μL). Microplates were incubated for 16-20 h at 35° C. in ambient air. The MIC of the compounds was defined as the lowest concentration of said compounds that prevented bacterial growth as read by visual inspection.

E. coli UFR18 = assay: MIC of ceftazidime (CAZ) at fixed concentration of compound (synergy), broth microdilution; format: cell-based; details: strain UFR18 (E. coli)
Outline: (§1)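 Growth inhibition was scored by eye after 16-20 h at 35° C (room air), with bacteria from log phase seeded at 5×10^5 cfu/mL final in cation-adjusted Mueller-Hinton medium.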

E. coli 131119 = assay: as above; format: cell-based; details: strain 131119 (E. coli)
Outline: as §1

E. cloacae UFR51 = assay: as above; format: cell-based; details: strain UFR51 (E. cloacae)
Outline: as §1

K. oxytoca UFR21 [2] = assay: as above; format: cell-based; details: strain UFR21 (K. oxytoca)
Outline: as §1

E. coli UFR74 = assay: as above; format: cell-based; details: strain UFR74 (E. coli)
Outline: as §1

E. coli RGN238 [3] = assay: as above; format: cell-based; details: strain RGN238 (E. coli)
Outline: as §1

E. cloacae UFR70 = assay: as above; format: cell-based; details: strain UFR70 (E. cloacae)
Outline: as §1

P. aeruginosa CIP107051 = assay: as above; format: cell-based; details: strain CIP107051 (P. aeruginosa)
Outline: as §1

E. coli UFR61O = assay: as above; format: cell-based; details: strain UFR61O (E. coli)
Outline: as §1

E. coli UFR39 = assay: as above; format: cell-based; details: strain UFR39 (E. coli)
Outline: as §1

E. cloacae 260508 = assay: as above; format: cell-based; details: strain 260508 (E. cloacae)
Outline: as §1

E. coli 190317 [4] = assay: as above; format: cell-based; details: strain 190317 (E. coli)
Outline: as §1

E. cloacae UFR85 = assay: as above; format: cell-based; details: strain UFR85 (E. cloacae)
Outline: as §1

K. pneumoniae 200047 = assay: as above; format: cell-based; details: strain 200047 (K. pneumoniae)
Outline: as §1

E. coli UFR32 = assay: as above; format: cell-based; details: strain UFR32 (E. coli)
Outline: as §1

K. pneumoniae UFR68 = assay: as above; format: cell-based; details: strain UFR68 (K. pneumoniae)
Outline: as §1

K. pneumoniae BAA-1898 = assay: as above; format: cell-based; details: strain BAA-1898 (K. pneumoniae)
Outline: as §1

K. pneumoniae UFR24 = assay: as above; format: cell-based; details: strain UFR24 (K. pneumoniae)
Outline: as §1

K. pneumoniae 6299 = assay: as above; format: cell-based; details: strain 6299 (K. pneumoniae)
Outline: as §1

K. pneumoniae UFR77 = assay: as above; format: cell-based; details: strain UFR77 (K. pneumoniae)
Outline: as §1

E. coli UFR41 = assay: as above; format: cell-based; details: strain UFR41 (E. coli)
Outline: as §1

E. cloacae P99 = assay: as above; format: cell-based; details: strain P99 (E. cloacae)
Outline: as §1

K. pneumoniae 160143 = assay: as above; format: cell-based; details: strain 160143 (K. pneumoniae)
Outline: as §1

OXA-15 = OXA-15 (Pseudomonas aeruginosa, UniProt Q51574); assay: biochemical
OXA-15, sequence (Q51574 22-275): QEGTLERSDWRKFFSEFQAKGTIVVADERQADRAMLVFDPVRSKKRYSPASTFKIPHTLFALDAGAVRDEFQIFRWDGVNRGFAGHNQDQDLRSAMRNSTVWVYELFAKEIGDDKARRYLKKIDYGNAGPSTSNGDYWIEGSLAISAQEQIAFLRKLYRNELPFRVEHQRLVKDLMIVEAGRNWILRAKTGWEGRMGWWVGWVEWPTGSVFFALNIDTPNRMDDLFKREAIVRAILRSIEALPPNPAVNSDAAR

OXA-48 = OXA-48 (Klebsiella pneumoniae, UniProt Q6XEC0)
OXA-48, sequence (Q6XEC0 23-265, looked up, species assumed): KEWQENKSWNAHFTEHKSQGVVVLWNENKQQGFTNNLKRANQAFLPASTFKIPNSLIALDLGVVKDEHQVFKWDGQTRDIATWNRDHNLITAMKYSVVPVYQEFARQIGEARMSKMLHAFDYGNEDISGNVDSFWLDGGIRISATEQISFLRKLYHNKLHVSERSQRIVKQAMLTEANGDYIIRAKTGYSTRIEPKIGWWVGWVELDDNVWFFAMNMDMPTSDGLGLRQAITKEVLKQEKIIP

KPC-2 = KPC-2 (Klebsiella pneumoniae, UniProt Q9F663)
KPC-2, sequence (Q9F663 25-293, looked up, species assumed): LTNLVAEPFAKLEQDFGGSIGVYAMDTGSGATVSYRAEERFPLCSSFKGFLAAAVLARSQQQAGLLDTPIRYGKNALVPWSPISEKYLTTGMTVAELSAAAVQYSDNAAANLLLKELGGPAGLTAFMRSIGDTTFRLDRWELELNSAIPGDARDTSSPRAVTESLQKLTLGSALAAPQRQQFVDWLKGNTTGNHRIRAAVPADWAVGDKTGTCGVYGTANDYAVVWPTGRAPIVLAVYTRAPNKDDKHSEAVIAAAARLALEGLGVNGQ

CTX-M-15 = CTX-M-15 (Escherichia coli, UniProt Q9EXV5)
CTX-M-15, sequence (Q9EXV5 29-291, species assumed): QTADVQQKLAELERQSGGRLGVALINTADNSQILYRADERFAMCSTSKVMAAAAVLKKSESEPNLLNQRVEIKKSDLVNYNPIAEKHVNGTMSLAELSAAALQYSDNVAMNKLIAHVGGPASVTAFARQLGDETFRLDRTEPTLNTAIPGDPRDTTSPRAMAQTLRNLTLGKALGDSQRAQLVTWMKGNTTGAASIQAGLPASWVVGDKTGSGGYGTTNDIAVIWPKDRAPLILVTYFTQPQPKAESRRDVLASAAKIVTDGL

K. oxytoca UFR21 [5] = assay: MIC of compound alone, broth microdilution; format: cell-based; details: Klebsiella oxytoca; strain UFR21: K. oxytoca; TEM-1, CTX-M-15, OXA-48; read-out: MIC compounds of the invention alone
Outline: as §1

E. coli 190317 [6] = assay: MIC of compound alone, broth microdilution; format: cell-based; details: Escherichia coli; strain 190317: E. coli; TEM-1, SHV-12, CTX-M-15, OXA-1; read-out: MIC compounds of the invention alone
Outline: as §1

[7] = footnote *: MIC of ceftazidime with compound fixed at 8 μg/mL
[8] = MIC of ceftazidime with compound fixed at 4 μg/mL

O=C1N2CC(n3cncn3)=CC(C2)N1OS(=O)(=O)[O-].[Na+] (stereo not drawn) [Example 5, sodium [7-oxo-3-(1,2,4-triazol-1-yl)-1,6-diazabicyclo[3.2.1]oct-3-en-6-yl]sulfate]
MIC (E. coli RGN238 [1]): 2 µg/mL | MIC combination of CAZ and compound at 8 μg/mL (E. coli UFR18; [7]): <0.25 | MIC combination of CAZ and compound at 8 μg/mL (E. coli 131119; [7]): <0.25 | MIC combination of CAZ and compound at 8 μg/mL (E. cloacae UFR51; [7]): <0.25 | MIC combination of CAZ and compound at 8 μg/mL (K. oxytoca UFR21 [2]; [7]): <0.25 | MIC combination of CAZ and compound at 8 μg/mL (E. coli UFR74; [7]): <0.25 | MIC combination of CAZ and compound at 8 μg/mL (E. coli RGN238 [3]; [7]): <0.25 | MIC combination of CAZ and compound at 8 μg/mL (E. cloacae UFR70; [7]): <0.25 | MIC combination of CAZ and compound at 8 μg/mL (P. aeruginosa CIP107051; [7]): 4 | MIC combination of CAZ and compound at 8 μg/mL (E. coli UFR61O; [7]): <0.25 | MIC combination of CAZ and compound at 8 μg/mL (E. coli UFR39; [7]): <0.25 | MIC combination of CAZ and compound at 8 μg/mL (E. cloacae 260508; [7]): <0.25 | MIC combination of CAZ and compound at 8 μg/mL (E. coli 190317 [4]; [7]): <0.25 | MIC combination of CAZ and compound at 8 μg/mL (E. cloacae UFR85; [7]): <0.25 | MIC combination of CAZ and compound at 8 μg/mL (K. pneumoniae 200047; [7]): <0.25 | MIC combination of CAZ and compound at 8 μg/mL (E. coli UFR32; [7]): <0.25 | MIC combination of CAZ and compound at 8 μg/mL (K. pneumoniae UFR68; [7]): <0.25 | MIC combination of CAZ and compound at 8 μg/mL (K. pneumoniae BAA-1898; [7]): <0.25 | MIC combination of CAZ and compound at 8 μg/mL (K. pneumoniae UFR24; [7]): <0.25 | MIC combination of CAZ and compound at 8 μg/mL (K. pneumoniae 6299; [7]): <0.25 | MIC combination of CAZ and compound at 8 μg/mL (K. pneumoniae UFR77; [7]): <0.25 | MIC combination of CAZ and compound at 8 μg/mL (E. coli UFR41; [7]): <0.25 | MIC combination of CAZ and compound at 8 μg/mL (E. cloacae P99; [7]): <0.25 | MIC combination of CAZ and compound at 8 μg/mL (K. pneumoniae 160143; [7]): <0.25 | IC50 (OXA-15): 27 nM | IC50 (OXA-48): 0.45 nM | IC50 (KPC-2): 3 nM | IC50 (CTX-M-15): 0.66 nM | MIC (K. oxytoca UFR21 [5]): 4 µg/mL | MIC (E. coli 190317 [6]): 1 µg/mL

O=C1N2CC(n3ccnn3)=C[C@H](C2)N1OS(=O)(=O)O [Example 6, sodium [(5R)-7-oxo-3-(triazol-1-yl)-1,6-diazabicyclo[3.2.1]oct-3-en-6-yl]sulfate]
MIC (E. coli RGN238 [1]): 1 µg/mL | MIC combination of CAZ and compounds of the invention at 4 μg/mL (E. coli UFR18; [8]): <0.25 | MIC combination of CAZ and compounds of the invention at 4 μg/mL (E. coli 131119; [8]): <0.25 | MIC combination of CAZ and compounds of the invention at 4 μg/mL (E. cloacae UFR51; [8]): <0.25 | MIC combination of CAZ and compounds of the invention at 4 μg/mL (K. oxytoca UFR21 [2]; [8]): <0.25 | MIC combination of CAZ and compounds of the invention at 4 μg/mL (E. coli UFR74; [8]): <0.25 | MIC combination of CAZ and compounds of the invention at 4 μg/mL (E. coli RGN238 [3]; [8]): <0.25 | MIC combination of CAZ and compounds of the invention at 4 μg/mL (E. cloacae UFR70; [8]): <0.25 | MIC combination of CAZ and compounds of the invention at 4 μg/mL (P. aeruginosa CIP107051; [8]): 4 | MIC combination of CAZ and compounds of the invention at 4 μg/mL (E. coli UFR61O; [8]): <0.25 | MIC combination of CAZ and compounds of the invention at 4 μg/mL (E. coli UFR39; [8]): <0.25 | MIC combination of CAZ and compounds of the invention at 4 μg/mL (E. cloacae 260508; [8]): <0.25 | MIC combination of CAZ and compounds of the invention at 4 μg/mL (E. coli 190317 [4]; [8]): <0.25 | MIC combination of CAZ and compounds of the invention at 4 μg/mL (E. cloacae UFR85; [8]): <0.25 | MIC combination of CAZ and compounds of the invention at 4 μg/mL (K. pneumoniae 200047; [8]): <0.25 | MIC combination of CAZ and compounds of the invention at 4 μg/mL (E. coli UFR32; [8]): <0.25 | MIC combination of CAZ and compounds of the invention at 4 μg/mL (K. pneumoniae UFR68; [8]): <0.25 | MIC combination of CAZ and compounds of the invention at 4 μg/mL (K. pneumoniae BAA-1898; [8]): <0.25 | MIC combination of CAZ and compounds of the invention at 4 μg/mL (K. pneumoniae UFR24; [8]): <0.25 | MIC combination of CAZ and compounds of the invention at 4 μg/mL (K. pneumoniae 6299; [8]): <0.25 | MIC combination of CAZ and compounds of the invention at 4 μg/mL (K. pneumoniae UFR77; [8]): <0.25 | MIC combination of CAZ and compounds of the invention at 4 μg/mL (E. coli UFR41; [8]): <0.25 | MIC combination of CAZ and compounds of the invention at 4 μg/mL (E. cloacae P99; [8]): <0.25 | MIC combination of CAZ and compounds of the invention at 4 μg/mL (K. pneumoniae 160143; [8]): <0.25 | IC50 (OXA-15): 21 nM | IC50 (OXA-48): 0.38 nM | IC50 (KPC-2): 2.1 nM | IC50 (CTX-M-15): 0.58 nM | MIC (K. oxytoca UFR21 [5]): 1 µg/mL | MIC (E. coli 190317 [6]): 0.5 µg/mL
